# Test results published in patent publication US20090270479A1, “Genetic and Epigenetic Alterations In the Diagnosis and Treatment of Cancer” (priority 2005, published 2009).
# T1: p107 (human, UniProt P28749 1-1068)
# T1 sequence (looked up): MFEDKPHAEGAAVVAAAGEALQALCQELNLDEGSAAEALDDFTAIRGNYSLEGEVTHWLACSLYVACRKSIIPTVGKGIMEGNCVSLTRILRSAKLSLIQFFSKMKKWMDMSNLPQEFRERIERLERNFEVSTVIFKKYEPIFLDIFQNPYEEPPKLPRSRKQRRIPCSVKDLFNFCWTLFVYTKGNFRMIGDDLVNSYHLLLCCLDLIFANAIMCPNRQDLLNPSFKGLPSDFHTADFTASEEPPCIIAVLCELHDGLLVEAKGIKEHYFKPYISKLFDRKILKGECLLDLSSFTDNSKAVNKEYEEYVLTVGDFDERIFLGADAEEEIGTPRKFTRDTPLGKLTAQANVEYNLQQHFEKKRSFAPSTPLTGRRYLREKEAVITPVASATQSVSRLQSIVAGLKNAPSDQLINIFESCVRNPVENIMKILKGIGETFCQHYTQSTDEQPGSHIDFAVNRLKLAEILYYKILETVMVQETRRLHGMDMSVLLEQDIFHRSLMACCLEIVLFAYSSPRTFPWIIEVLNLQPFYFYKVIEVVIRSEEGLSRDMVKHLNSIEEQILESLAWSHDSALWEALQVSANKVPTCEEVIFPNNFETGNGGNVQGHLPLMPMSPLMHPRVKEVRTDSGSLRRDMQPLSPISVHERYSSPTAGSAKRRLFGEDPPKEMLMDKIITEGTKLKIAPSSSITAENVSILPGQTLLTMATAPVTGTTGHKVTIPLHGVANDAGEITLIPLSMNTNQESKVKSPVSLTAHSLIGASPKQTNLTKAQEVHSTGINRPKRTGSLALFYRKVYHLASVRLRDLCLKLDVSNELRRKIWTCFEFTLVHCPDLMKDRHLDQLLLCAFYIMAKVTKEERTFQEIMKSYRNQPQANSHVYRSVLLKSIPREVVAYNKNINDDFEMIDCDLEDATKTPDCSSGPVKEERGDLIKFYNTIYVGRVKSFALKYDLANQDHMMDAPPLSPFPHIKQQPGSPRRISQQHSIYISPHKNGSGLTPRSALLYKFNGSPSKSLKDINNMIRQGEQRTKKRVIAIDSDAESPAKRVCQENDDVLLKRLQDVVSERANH
# B1: plasminogen activator inhibitor type-2 (other, human, UniProt P05120 1-415, looked up)
# chain: MEDLCVANTLFALNLFKHLAKASPTQNLFLSPWSISSTMAMVYMGSRGSTEDQMAKVLQFNEVGANAVTPMTPENFTSCGFMQQIQKGSYPDAILQAQAADKIHSSFRSLSSAINASTGNYLLESVNKLFGEKSASFREEYIRLCQKYYSSEPQAVDFLECAEEARKKINSWVKTQTKGKIPNLLPEGSVDGDTRMVLVNAVYFKGKWKTPFEKKLNGLYPFRVNSAQRTPVQMMYLREKLNIGYIEDLKAQILELPYAGDVSMFLLLPDEIADVSTGLELLESEITYDKLNKWTSKDKMAEDEVEVYIPQFKLEEHYELRSILRSMGMEDAFNKGRANFSGMSERNDLFLSEVFHQAMVDVNEEGTEAAAGTGGVMTGRTGHGGPQFVADHPFLFLIMHKITNCILFFGRFSSP
# notes: Endogenous protein, immunoprecipitated with anti-PAI-2 antibody; also called PAI-2
# Columns and labels:
# Weri-Rb1 cells [1] = test: Cell viability (MTT) / proliferation of Weri-Rb1 cells; format: cell-based, human; details: 2.5 μM, after 96 h of treatment, vs untreated
# Protocol: (§1) Weri-Rb1 cell line and 5-Aza-2-dc DNA methyltransferase inhibitor treatment—Human retinoblastoma cell line (Weri-Rb1 ) obtained from the American Type Culture Collection (ATCC, Manassas, Va., USA) was cultured in RPMI 1640 supplemented with 10% FCS at spin ratio of 1:2 once a week. A volume of […] of 5-Aza-2-dc, a DNA methyltransferase inhibitor (Sigma-Aldrich, St. Louis, Mo., USA) was added to medium culture of treated cells.
# (§2) Cell viability (MTT) and FACS analysis—Quantitative cell viability was measured by colorimetric assay using a cell proliferation kit (MTT) (Roche Molecular Biochemicals, Mannheim, Germany). A total of 5000 cells/well Weri-Rb1 and 5-Aza-2-dc-treated Weri-Rb1 were grown in microtiter plates (96-well) in a final volume of 100 μl culture medium. The incubation period of cell culture was 24, 48 and 96 h in the presence or absence of the 2.5 μM DNA methyltransferase inhibitor. After incubation period, 10 μl MTT labeling reagent was added to each well to a final concentration […]. MTT is cleaved by growing cells to form formazan crystals which allows quantification of cell viability by spectrdphotometric analysis (ELISA) at 550 nm. Cell viability was expressed as the percentage of the absorbance of drug-treated and untreated cells relative to that of the untreated cells of 0 h. […]
# Weri-Rb1 cells [2] = test: FACS analysis of 5-Aza-2-dc treated Weri-Rb1 cells; format: cell-based, human; details: 2.5 μM
# Protocol: as §1, §2
# [3] = test system: RB2/p130 mRNA in H23 cells; test: Multiplex RT-PCR of RB2/p130 mRNA in treated H23 cells; format: cell-based, human; details: 2.5 μM, beginning at 48 hours after treatment, vs basal level
# Protocol: (§3) Cell cultures and treatment—Cell lines were purchased from the American Type Culture Collection (Rockville, Md.). The cells were cultured in DMEM or RPMI1640 medium supplemented with 10% fetal bovine serum and 2 mM L-glutamine. For treatment, cells were seeded at a density of 5×10^5 cells/100-mm tissue culture dish. 2.5 μM of DNA methyltransferase inhibitor (5-AZA-2-deoxicytidine) was added to the culture medium for up 96 hours.
# Multiplex RT-PCR—Multiplex RT-PCR analysis was carried out with 0.2 μg of total RNA from treated and untreated H23 cells. PCR was performed using RB2/p130 primers and β-actin specific primers (SuperScript RT-PCR System, Invitrogen).
# [4] = test system: pRb2/p130 expression in Weri-Rb1 cells; test: Western blot of pRb2/p130 in treated Weri-Rb1 cells; format: cell-based, human; details: Weri-Rb1 whole cell lysates, treated 24-96 h, vs untreated control after 96 h culture
# Protocol: as §1
# Western blotting—Western blot analysis of pRb/p105 and pRb2/p130 was performed on three fresh samples of primary tumors (samples 8-10). Weri-Rb1 cells and one normal retina sample, obtained from a patient who underwent enucleation for painful absolute glaucoma, served as an experimental control. Fresh tissues were immediately frozen in liquid nitrogen. Furthermore, Weri-Rb1 cells treated and untreated with 5-Aza-2-dc at various times were processed for Western blot analysis. Whole tissues lysates were prepared by resuspending homogenized tissues and pelleted cells in lysis buffer (50 mM Tris/HCl, 5 mM EDTA, 250 mM NaCl, 50 mM NaF, 0.1% Triton X-100, 0.1 mM Na3VO4 plus fresh inhibitors). Equal amounts of 100 μg of total extracts were loaded and resolved on a 7 or 10% SDS-PAGE. The gels were then transferred onto a nitrocellulose filter and checked by using 0.1% Ponceau red. […]
# [5] = test system: pRb2/p130 protein in H23 cells; test: Western blot of pRb2/p130 in treated H23 cells; format: cell-based, human; details: 2.5 μM, observed at 72 hours, maximum at 96 hours
# Protocol: as §3
# Western blot analysis of pRb2/p130 was performed using total protein lysates from untreated and 5-AZA-2-deoxicytidine treated H23 cells. Whole cell lysates were prepared in lysis buffer (50 mM Tris/HCl, 5 mM EDTA, 250 mM NaCl, 50 mM NaF, 0.1% Triton-X, 0.1 mM Na3VO4 plus fresh inhibitors). Equal amounts of 100 μg of total extracts were loaded and resolved on a 7% SDS-PAGE. The gels were then transferred onto a nitrocellulose filter and checked by using 0.1% Ponceau red. The monoclonal anti-pRb2/p130 (Transduction Laboratories, Ky., USA) was used at a dilution of 1:800.
# p107 = target: T1, p107; test: co-immunoprecipitation with anti-PAI-2 antibody from nuclear and cytoplasmic lysates of primary human corneal and conjunctival epithelial cells, Western blot with anti-p107
# From the text: Western blot and chromatin immuoprecipitation assay—Cytoplasmic and nuclear proteins were extracted from 12 couples of paired normal human corneal and conjunctival epithelial cells by using the PARIS kit (Ambion) according to the manufacturer's instructions. Efficient cytoplasmic and nuclear fractionation was confirmed by Western blotting analysis using anti-GAPDH antibody for the cytoplasmic fraction and anti Oct-1 antibody for the nuclear fraction. Immunoprecipitation experiments were performed using the cytoplasmic and nuclear fractions with PAI-2 as immunoprecipitating antibody (N-18, Santa Cruz Biotechnology, Calif.). The presence of pRb2/p130, Rb1/p105 and p107 in both PAI-2 nuclear and cytoplasmic precipitates was assessed with anti-pRb2/p130, anti-Rb1/p105 and p107 antibodies (211.6, C-15 and C-18, respectively; Santa Cruz Biotechnology, Calif.) by Western blotting.
# In order to assess whether PAI-2 associated with the retinoblastoma family proteins, PAI-2 was immunoprecipitated from nuclear and cytoplasmic lysates of twelve paired couples of normal primary human corneal and conjunctival epithelial cells. The immunoprecipitates were then analyzed by Western blotting using anti-pRb2/p130, anti-Rb1/p105, anti-p107 and anti-PAI-2 antibodies. For all the cell lines analyzed, anti-PAI-2 antibody co-immunoprecitated pRb2/p130 and Rb1/p105 from both nuclear and cytoplasmic fractions. […]
# [6] = listed as 5-AZA-2-deoxycytidine
Molecule,number of cells (proliferation rate) (Weri-Rb1 cells [1]),"amount of apoptotic cells (Weri-Rb1 cells [2]; 96 h, % of treated cells (control 6%))","G1 arrested cells (Weri-Rb1 cells [2]; after 24 h, % of treated cells (control 30%))",RB2/p130 mRNA level [3],"RB2/p130 mRNA level [3, 6]",expression of endogenous pRb2/p130 [4],"pRb2/p130 protein level, active hypophosphorylated form [5]","pRb2/p130 protein level, active hypophosphorylated form [5, 6]",binding result (p107)
"Nc1ncn([C@H]2C[C@H](O)[C@@H](CO)O2)c(=O)n1 [5-Aza-dC, 5-Aza-2-deoxycytidine]",markedly reduced,20%,40%,increase,increased,increased expression,increase,increased,
B1,,,,,,,,,no binding
